The values that follow are results of earlier work, collected in patent US7479481B2, “Treatment of ocular diseases and disorders using lantibiotic compositions” (Molichem Medicines, Inc., priority 2004, dated 2009).

This series relates to clatharin-coated vesicle acidification. The note with it: clatharin-coated vesicles; Stone et al., J. Biol. Chem. 259: 2701-2703 (1984).

Turning to duramycin, the “inhibition of the proton translocation facilitated by chloride translocation” value is listed as “up to 50%”.
